Here are results for one compound from patent EP0335331A1, “O- (1,2-Di-O-acetyl-glycero-3-phosphoryl)ethanolamine, a process for its preparation and its therapeutic use” (MAGIS FARMACEUTICI S.p.A., priority 1988, dated 1989).

Data set [1] is described as follows: acute toxicity by the Weil method. To be noted: in vivo, mouse, read-out: LD₅₀. The text has this: The acute toxicity of the compound of formula (I) was studied on the mouse by the Weil method [Weil C.S. Biometr. 8, 249 (1952)].
In the next data set the test system is rat. Put plainly: olive oil-induced alteration of lipoprotein state, plasma cholesterol and triglycerides. It counts as in vivo. Particulars: normally fed rat treated orally with 15 ml/kg of olive oil; greatest effect two hours after the olive oil treatment. The protocol: The effect of the compound in terms of modifying the lipoprotein state and the plasma cholesterol and triglyceride levels, altered by oral administration of olive oil, was studied in normally fed rat treated orally with 15 ml/kg of olive oil at various concentrations.

As to `CC(=O)OCC(COP(=O)(O)OCCN)OC(C)=O` (centres unmarked) [compound of formula (I), O-(1,2-di-O-acetylglycero-3-phosphoryl)ethanolamine], the LD50 in data set [1] is over 2000 mg/kg. In the data set with rat, the “effect on increase in triglycerides and cholesterol, reduction in the α-lipoproteins and increase in the β and pre-β fractions” value is given as “well antagonised by the compound, which proved able to return the parameters to normality”.
